In the supplement of paper PMC6965134:

experiment: TIMS collisional cross section (CCS, N2) of the lipid ion; higher = larger ion cross section; details: sample type: HeLa; ionization mode: positive; one isomer drawn

SMILES	TIMS collisional cross section [Å²]
CCCCC/C=C\C/C=C\CCCCCCCCCCCC(=O)O[C@H](COC(=O)CCCCCCC/C=C\CCCCCCCC)COP(=O)([O-])OCC[N+](C)(C)C [PC 18:1_22:2@] (ion (formula + adduct): [C48H90NO8P+H] 1+)	302.4
CCCCCCCCCCCCC/C=C/C=C/C(=O)OC[C@H](COP(=O)([O-])OCC[N+](C)(C)C)OC(=O)/C=C/C=C/CCCCCCCCCCCCC [PC 18:2_18:2] (ion (formula + adduct): [C44H80NO8P+H] 1+)	287.6

The remaining lines, values ahead:

TIMS collisional cross section [Å²]	SMILES
286.6	CC/C=C\C/C=C\C/C=C\C/C=C\C/C=C\CCCC(=O)O[C@H](COC(=O)CCCCCCC/C=C\C/C=C\CCCCC)COP(=O)([O-])OCC[N+](C)(C)C [PC 18:2@_20:5] (ion (formula + adduct): [C46H78NO8P+H] 1+)
292.7	CCCCC/C=C/C/C=C/C/C=C/C/C=C/CCCC(=O)OC[C@H](COP(=O)([O-])OCC[N+](C)(C)C)OC(=O)CCC/C=C/C/C=C/C/C=C/C/C=C/CCCCC [PC 20:4_20:4] (ion (formula + adduct): [C48H80NO8P+H] 1+)

same assay, conditions: sample type: Liver; ionization mode: positive; one isomer drawn

SMILES	TIMS collisional cross section [Å²]
CCCCC/C=C\C/C=C\C/C=C\CCCCC(=O)O[C@H](COC(=O)CCCCCCC/C=C\C/C=C\CCCCC)COP(=O)([O-])OCC[N+](C)(C)C [PC 18:2@_18:3] (ion (formula + adduct): [C44H78NO8P+H] 1+)	284.9
CCCCC/C=C\C/C=C\C/C=C\CCCCC(=O)O[C@H](COC(=O)CCCCCCC/C=C\C/C=C\CCCCC)COP(=O)([O-])OCC[N+](C)(C)C [PC 18:2_18:3@] (ion (formula + adduct): [C44H78NO8P+H] 1+)	289.9
CCCCC/C=C\C/C=C\CCCCCCCC(=O)OC[C@H](COP(=O)([O-])OCC[N+](C)(C)C)OC(=O)CCCCCCCCCCCCCCCCCC [PC 18:2_19:0] (ion (formula + adduct): [C45H86NO8P+H] 1+)	294.4
CCCCC/C=C\C/C=C\C/C=C\CCCCCCC(=O)O[C@H](COC(=O)CCCCCCCCCCCCCCCCCC)COP(=O)([O-])OCC[N+](C)(C)C [PC 19:0@_20:3] (ion (formula + adduct): [C47H88NO8P+H] 1+)	299.8
CCCCC/C=C\C/C=C\C/C=C\C/C=C\CCCC(=O)O[C@H](COC(=O)CCCCCCCCCCCCCCCCCC)COP(=O)([O-])OCC[N+](C)(C)C [PC 19:0@_20:4] (ion (formula + adduct): [C47H86NO8P+H] 1+)	298
CCCCC/C=C\C/C=C\CCCCCCCC(=O)O[C@H](COC(=O)CCCCCCCCCCCCCCCCCCC)COP(=O)([O-])OCC[N+](C)(C)C [PC 20:0_18:2] (ion (formula + adduct): [C46H88NO8P+H] 1+)	297.5

Next, values leading:

TIMS collisional cross section [Å²]	SMILES
295.6	CC/C=C\C/C=C\C/C=C\C/C=C\C/C=C\C/C=C\CCC(=O)O[C@H](COC(=O)CCCCCCCCC/C=C\CCCCCC)COP(=O)([O-])OCC[N+](C)(C)C [PC 18:1_22:6] (ion (formula + adduct): [C48H82NO8P+H] 1+)
290.9	CCCCC/C=C\C/C=C\C/C=C\C/C=C\CCCC(=O)O[C@H](COC(=O)CCCCCCC/C=C\C/C=C\CCCCC)COP(=O)([O-])OCC[N+](C)(C)C [PC 18:2@_20:4] (ion (formula + adduct): [C46H80NO8P+H] 1+)
290.1	CCCCC/C=C\C/C=C\C/C=C\C/C=C\CCCC(=O)O[C@H](COC(=O)CCCCCCC/C=C\C/C=C\CCCCC)COP(=O)([O-])OCC[N+](C)(C)C [PC 18:2_20:4] (ion (formula + adduct): [C46H80NO8P+H] 1+)
292.5	CC/C=C\C/C=C\C/C=C\C/C=C\C/C=C\C/C=C\CCC(=O)O[C@H](COC(=O)CCCCCCC/C=C\C/C=C\CCCCC)COP(=O)([O-])OCC[N+](C)(C)C [PC 18:2_22:6] (ion (formula + adduct): [C48H80NO8P+H] 1+)
293.2	CCCCC/C=C\C/C=C\C/C=C\CCCCCCC(=O)O[C@H](COC(=O)CCCC/C=C\C/C=C\C/C=C\CCCCC)COP(=O)([O-])OCC[N+](C)(C)C [PC 18:3_20:3@] (ion (formula + adduct): [C46H80NO8P+H] 1+)
286.7	CCCCC/C=C\C/C=C\C/C=C\C/C=C\CCCC(=O)O[C@H](COC(=O)CCCC/C=C\C/C=C\C/C=C\CCCCC)COP(=O)([O-])OCC[N+](C)(C)C [PC 18:3_20:4] (ion (formula + adduct): [C46H78NO8P+H] 1+)
289.6	CC/C=C\C/C=C\C/C=C\C/C=C\C/C=C\C/C=C\CCC(=O)O[C@H](COC(=O)CCCC/C=C\C/C=C\C/C=C\CCCCC)COP(=O)([O-])OCC[N+](C)(C)C [PC 18:3_22:6@] (ion (formula + adduct): [C48H78NO8P+H] 1+)
300.5	CC/C=C\C/C=C\C/C=C\C/C=C\C/C=C\C/C=C\CCC(=O)O[C@H](COC(=O)CCCCCCCCCCCCCCCCCC)COP(=O)([O-])OCC[N+](C)(C)C [PC 19:0@_22:6] (ion (formula + adduct): [C49H86NO8P+H] 1+)

same assay, conditions: sample type: plasma; ionization mode: positive; one isomer drawn

SMILES	TIMS collisional cross section [Å²]
CCCCC/C=C\C/C=C\CCCCCCCC(=O)OC[C@H](COP(=O)([O-])OCC[N+](C)(C)C)OC(=O)CCCCCCCCCCCCCCCCCCCCCCC [PC 18:2@_24:0] (ion (formula + adduct): [C50H96NO8P+H] 1+)	310.1
CCCCCCCCCCCCC/C=C/C=C/C(=O)OC[C@H](COP(=O)([O-])OCC[N+](C)(C)C)OC(=O)/C=C/C=C/CCCCCCCCCCCCC [PC 18:2_18:2] (ion (formula + adduct): [C44H80NO8P+H] 1+)	286.9
CCCCC/C=C\C/C=C\C/C=C\CCCCC(=O)O[C@H](COC(=O)CCCCCCC/C=C\C/C=C\CCCCC)COP(=O)([O-])OCC[N+](C)(C)C [PC 18:2_18:3@] (ion (formula + adduct): [C44H78NO8P+H] 1+)	289.3
CCCCC/C=C\C/C=C\C/C=C\CCCCC(=O)OC[C@H](COP(=O)([O-])OCC[N+](C)(C)C)OC(=O)CCCCCCC/C=C\CCCCCCCCC [PC 18:3@_19:1] (ion (formula + adduct): [C45H82NO8P+H] 1+)	295
CCCCC/C=C\C/C=C\C/C=C\CCCCCCC(=O)O[C@H](COC(=O)CCCCCCCCC/C=C\CCCCCCCC)COP(=O)([O-])OCC[N+](C)(C)C [PC 20:1@_20:3] (ion (formula + adduct): [C48H88NO8P+H] 1+)	301.7

Further lines, results first:

TIMS collisional cross section [Å²]	SMILES
296.5	CC/C=C\C/C=C\C/C=C\C/C=C\C/C=C\C/C=C\CCC(=O)O[C@H](COC(=O)CCCCCCCCC/C=C\CCCCCC)COP(=O)([O-])OCC[N+](C)(C)C [PC 18:1_22:6@] (ion (formula + adduct): [C48H82NO8P+H] 1+)
287	CC/C=C\C/C=C\C/C=C\C/C=C\C/C=C\CCCC(=O)O[C@H](COC(=O)CCCCCCC/C=C\C/C=C\CCCCC)COP(=O)([O-])OCC[N+](C)(C)C [PC 18:2@_20:5] (ion (formula + adduct): [C46H78NO8P+H] 1+)
283.6	CCCCC/C=C\C/C=C\C/C=C\CCCCC(=O)O[C@H](COC(=O)CCCCCCC/C=C\C/C=C\CCCCC)COP(=O)([O-])OCC[N+](C)(C)C [PC 18:2_18:3] (ion (formula + adduct): [C44H78NO8P+H] 1+)
292.8	CCCCC/C=C\C/C=C\C/C=C\C/C=C\CCCC(=O)O[C@H](COC(=O)CCCC/C=C\C/C=C\C/C=C\CCCCC)COP(=O)([O-])OCC[N+](C)(C)C [PC 18:3@_20:4] (ion (formula + adduct): [C46H78NO8P+H] 1+)
288.2	CC/C=C\C/C=C\C/C=C\C/C=C\C/C=C\CCCC(=O)O[C@H](COC(=O)CCCC/C=C\C/C=C\C/C=C\CCCCC)COP(=O)([O-])OCC[N+](C)(C)C [PC 18:3_20:5] (ion (formula + adduct): [C46H76NO8P+H] 1+)
